{"source": "patent US20140249076A1", "about": "“AMYLIN-CALCITONIN CHIMERIC PEPTIDES CONJUGATED TO DURATION ENHANCING MOIETIES” (AMYLIN PHARMACEUTICALS, LLC, priority 2011, published 2014)", "key": {"Amylin receptor": {"target": "T1, Amylin receptor (Rattus norvegicus, UniProt P32214)", "T1 construct": "from tissue; read as rat nucleus accumbens membranes", "T1 sequence (P32214 25-516)": "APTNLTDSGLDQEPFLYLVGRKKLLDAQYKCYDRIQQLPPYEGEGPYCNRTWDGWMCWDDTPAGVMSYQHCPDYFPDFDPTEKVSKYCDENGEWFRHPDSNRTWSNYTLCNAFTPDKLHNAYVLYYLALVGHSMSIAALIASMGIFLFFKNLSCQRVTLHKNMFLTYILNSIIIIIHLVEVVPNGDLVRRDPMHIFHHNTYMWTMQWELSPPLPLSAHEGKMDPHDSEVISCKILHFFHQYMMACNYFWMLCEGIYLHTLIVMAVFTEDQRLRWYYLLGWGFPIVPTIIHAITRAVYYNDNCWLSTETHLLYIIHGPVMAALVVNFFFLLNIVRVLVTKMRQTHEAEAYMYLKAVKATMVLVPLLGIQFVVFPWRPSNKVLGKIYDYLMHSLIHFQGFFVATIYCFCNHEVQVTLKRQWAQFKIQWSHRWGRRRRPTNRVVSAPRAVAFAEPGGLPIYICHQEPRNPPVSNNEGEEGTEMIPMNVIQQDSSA", "T1 sequence (Q9JJ74 27-148 partner)": "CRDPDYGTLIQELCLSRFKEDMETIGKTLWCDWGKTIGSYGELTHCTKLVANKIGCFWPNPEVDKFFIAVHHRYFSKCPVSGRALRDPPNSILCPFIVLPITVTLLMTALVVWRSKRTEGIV", "assay": "Amylin receptor binding assay (125I-rat amylin, RNA membranes)", "details": "Table 8", "protocol": "(§1) Amylin receptor binding assay. RNA membranes can be incubated with approximately 20 μM (final concentration) of ^125I-rat amylin (Bolton-Hunter labeled, PerkinElmer, Waltham, Mass.) and increasing concentrations of test compound for 1 hour at ambient temperature in, for example, 96-well polystyrene plates. […] Dried glass fiber plates can be combined with scintillant and counted on a multi-well Perkin Elmer scintillation counter.\n(§2) A variety of receptor binding and functional activity assays were conducted using the peptide conjugates described herein. Receptor binding activity can be expressed, for example in Table 6, as an IC50 value, calculated from the raw data using an iterative curve-fitting program using a 4-parameter logistic equation (PRISM®, GraphPAD Software, La Jolla, Calif.), as known in the art.\nas §1, with “For the amylin” for “Amylin”, “assay,” for “assay.”, “were” for “can be”, “in” for “in, for example,”, “counter, as well known in the art.” for “counter.”"}, "Calcitonin receptor": {"target": "T2, Calcitonin receptor (Rattus norvegicus, UniProt P32214)", "T2 construct": "expressed in transfected cells; host or cells: C1a-HEK cells (HEK cells stably expressing the receptor), membranes", "T2 sequence (P32214 25-479 isoform P32214-2 limits assumed)": "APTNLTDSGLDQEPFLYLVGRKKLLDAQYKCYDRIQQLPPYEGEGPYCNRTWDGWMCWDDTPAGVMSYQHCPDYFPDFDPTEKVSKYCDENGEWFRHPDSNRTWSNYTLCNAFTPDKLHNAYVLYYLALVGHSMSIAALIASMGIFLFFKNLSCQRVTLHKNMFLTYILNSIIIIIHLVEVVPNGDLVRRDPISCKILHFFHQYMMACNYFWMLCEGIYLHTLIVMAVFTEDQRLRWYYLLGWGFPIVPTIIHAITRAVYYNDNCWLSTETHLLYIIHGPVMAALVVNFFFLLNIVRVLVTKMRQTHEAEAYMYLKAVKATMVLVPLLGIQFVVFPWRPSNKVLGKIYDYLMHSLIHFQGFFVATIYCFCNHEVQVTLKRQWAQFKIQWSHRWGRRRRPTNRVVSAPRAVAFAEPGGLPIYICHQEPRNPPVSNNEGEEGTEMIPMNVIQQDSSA", "assay": "Calcitonin receptor binding assay (125I-human calcitonin, C1a-HEK cell membranes)", "details": "Table 8", "protocol": "as §1, with “Calcitonin” for “Amylin”, “C1a-HEK cell” for “RNA”, “[…]” for “20”, “^125I-human calcitonin (PerkinElmer,” for “^125I-rat amylin (Bolton-Hunter labeled, PerkinElmer,”, “multiwell” for “multi-well”\nas §2\nFor the calcitonin receptor binding assay, C1a-HEK cell membranes were incubated with approximately […] (final concentration) of ^125I-human calcitonin (PerkinElmer, Waltham, Mass.) and increasing concentrations of test compound for 1 hour at ambient temperature in 96-well polystyrene plates. […] Dried glass fiber plates were combined with scintillant and counted on a multiwell Perkin Elmer scintillation counter."}, "mice": {"tested_on": "mice", "assay": "Forced swim test (FST)", "assay_type": "in vivo, mouse", "details": "qualitative result; 0.03 mg/kg dosing, as in Example 8", "excerpt": "The forced swim test (FST) is a commonly used paradigm to evaluate antidepressant activity of drugs. The FST is based on measurement of the animal's floating time in a tank filled with water. When rats or mice are forced to swim in a deep cylinder with tepid water they become nearly immobile and cease trying to escape. Without wishing to be bound by any theory, it is believe that this characteristic immobile posture reflects a depressive-like state which is readily influenced by a wide variety of antidepressants. See, e.g., Hedou et al., 2001, Pharmacol, Biochem. Behay. 70:65-76; Chaki et al., 2003, J. Pharmacol. Exp. Ther. 304:818-826; Porsolt et al., 1977, Nature 266:730-732. Antidepressants decrease the immobility time in the FST. Vehicle or test compound can be delivered continuously for two weeks to mice by subcutaneously implanted osmotic pumps prior to the FST. Indeed, any route of administration (e.g., intraperitoneal, subcutaneous, oral and the like) is available. Mice can be placed in the water tank for assessment of climbing, swimming, and immobility over a defined trial session, typically 6 minutes. Test session parameters for mice and rats are typically different, as known in the art.\nThe forced swim test (FST) is a commonly used paradigm to evaluate antidepressant activity of drugs. […] Specifically, vehicle or test compound was delivered continuously for two weeks to mice by subcutaneously implanted osmotic pumps prior to the FST assay, by methods well known in the art. On day one, the patients were introduced into the tank for a 15 minute pre-swim session. On day two, the patients were placed back into the water tank for assessment of climbing, swimming, and immobility over a 6 minute trial session. The rate of compound infusion was 0.03 mg/kg/day."}, "[1]": {"tested_on": "male Harlan Sprague-Dawley rats", "assay": "Stress-induced hyperthermia (SIH) assay", "assay_type": "in vivo, rat", "details": "0.1 mg/kg IP, 18 hr pretreatment", "excerpt": "Stress-induced hyperthermia (SIH). Body temperature and emotional state are closely related in humans. Without wishing to be bound by any theory, it is believed that stress-induced hyperthermia (SIH) in rodents has predictive validity for certain human anxiety/stress disorders. The SIH assay assesses the effect of test agents (e.g, anxiolytics) on core body temperature following restraint stress. See, for example, Zethof et al., 1994, Physiol. Behay. 55:109-115. Anxiolytics typically blunt the increase in body temperature, or hyperthermic response, following stress exposure. […] Test animals can then be patiented to two sequential rectal temperature measurements at a measured time interval (e.g, 30 min). The difference between the second temperature reading and the first temperature reading (ΔT) is the stress-induced hyperthermic response.\nAs described above, it is believed that stress-induced hyperthermia (SIH) in rodents (e.g., rats) has predictive validity for certain human anxiety/stress disorders. […] Temperature readings were obtained remotely at the time of injection and at t=0 and t=30 minutes. The SIH response was defined as the change from t=30 back to t=0 minutes, while effects on basal temperature were calculated as the change from t=0 back to the time of injection."}}, "note": "Numbered stars: 1 amine (or outer) side, 2 acyl side, 3 side chain; on linkers, the order of the positions; unused ones are H or OH. Bridge positions count the residues as written; N and C are the ends. Side chains are listed from the residue outwards. Peptide text beside a SMILES is read from it. * marks the point of attachment. γGlu = O=C(O)[C@H](CCC(=O)[*:2])N[*:1]; Palmitoyl = CCCCCCCCCCCCCCCC(=O)*", "data": [{"smiles": "CC(C)C[C@H](NC(=O)[C@H](C)NC(=O)[C@@H]1CSSC[C@H](NC(=O)[C@@H](N)CCCCN)C(=O)N[C@@H](CC(N)=O)C(=O)N[C@@H]([C@@H](C)O)C(=O)N[C@@H](C)C(=O)N[C@@H]([C@@H](C)O)C(=O)N1)C(=O)N[C@@H](CCC(N)=O)C(=O)N[C@@H](CCCNC(=N)N)C(=O)N[C@@H](CC(C)C)C(=O)N[C@@H](C)C(=O)N[C@@H](CCC(N)=O)C(=O)N[C@@H](CCC(=O)O)C(=O)N[C@@H](CC(C)C)C(=O)N[C@@H](Cc1c[nH]cn1)C(=O)N[C@@H](CCCNC(=N)N)C(=O)N[C@@H](CC(C)C)C(=O)N[C@@H](CCC(N)=O)C(=O)N[C@H](C(=O)N[C@@H](Cc1ccc(O)cc1)C(=O)N1CCC[C@H]1C(=O)N[C@@H](CCCNC(=N)N)C(=O)N[C@H](C(=O)N[C@@H](CC(N)=O)C(=O)N[C@H](C(=O)NCC(=O)N[C@@H](CO)C(=O)N[C@@H](CC(N)=O)C(=O)N[C@H](C(=O)N[C@@H](Cc1ccc(O)cc1)C(N)=O)[C@@H](C)O)C(C)C)[C@@H](C)O)[C@@H](C)O", "note": "[Cmpd 17] (H-KCNTATCALQRLAQELHRLQTYPRTNVGSNTY-NH2; disulfide 2-7; N-terminus assumed)", "values": [{"measurement": "IC50", "setting": "Amylin receptor", "result": 0.028, "unit": "nM"}, {"measurement": "IC50", "setting": "Calcitonin receptor", "result": 0.095, "unit": "nM"}, {"measurement": "FST Assay, 0.03 mg/kg", "setting": "mice", "result": "Inactive"}]}, {"smiles": "CCCCCCCCCCCCCCCC(=O)N[C@@H](CCC(=O)NCCCC[C@H](NC(=O)[C@@H](NC(=O)[C@H](CCCNC(=N)N)NC(=O)[C@@H]1CCCN1C(=O)[C@H](Cc1ccc(O)cc1)NC(=O)[C@@H](NC(=O)[C@H](CCC(N)=O)NC(=O)[C@H](CC(C)C)NC(=O)[C@H](CCCNC(=N)N)NC(=O)[C@H](Cc1c[nH]cn1)NC(=O)[C@H](CC(C)C)NC(=O)[C@H](CCC(=O)O)NC(=O)[C@H](CCC(N)=O)NC(=O)[C@H](C)NC(=O)[C@H](CC(C)C)NC(=O)[C@H](CCCNC(=N)N)NC(=O)[C@H](CCC(N)=O)NC(=O)[C@H](CC(C)C)NC(=O)[C@H](C)NC(=O)[C@@H]1CSSC[C@H](NC(=O)[C@@H](N)CCCCN)C(=O)N[C@@H](CC(N)=O)C(=O)N[C@@H]([C@@H](C)O)C(=O)N[C@@H](C)C(=O)N[C@@H]([C@@H](C)O)C(=O)N1)[C@@H](C)O)[C@@H](C)O)C(=O)N[C@H](C(=O)NCC(=O)N[C@@H](CO)C(=O)N[C@@H](CC(N)=O)C(=O)N[C@H](C(=O)N[C@@H](Cc1ccc(O)cc1)C(N)=O)[C@@H](C)O)C(C)C)C(=O)O", "note": "[Cmpd 189, [K^26ε-(γ-Glu(Nα-C16-Chain))]-Cmpd 17] (H-KCNTATCALQRLAQELHRLQTYPRTK([γGlu-Palmitoyl])VGSNTY-NH2; disulfide 2-7 (inferred); N-terminus assumed)", "values": [{"measurement": "FST Assay, 0.03 mg/kg", "setting": "mice", "result": "Active"}, {"measurement": "SIH response", "setting": "[1]", "result": "statistically insignificant reduction in SIH"}]}]}
